These results are taken from patent US20040242662A1 (priority 2000, published 2004).

For one data set, the system named is Phytophthora infestans. Format: in vivo. Conditions: tomato, protective; application rate 50 g/ha; evaluation three days after inoculation; 100% means no infection.
A short description of data set [1]: logP determination by HPLC (EEC Directive 79/831 Annexe V.A8). To be noted: gradient method, acetonitrile/0.1% aqueous phosphoric acid. The class given is physicochemical. The method, then: The logP values were determined in accordance with EEC Directive 79/831 Annexe V.A8 by HPLC (gradient method, acetonitrile/0.1% aqueous phosphoric acid).

As for `Cc1c(Cl)nc(Br)n1S(=O)(=O)c1cccnc1Cl` [drawing 18], the Efficacy in % in the data set on Phytophthora infestans came out at 94%.

`Cc1c(Cl)nc(Br)n1S(=O)(=O)c1cccnc1Cl` [Example 1, 3-[(2-bromo-4-chloro-5-methyl-1H-imidazol-1-yl)-sulfonyl]-2-chloropyridine]: the melting point was 144 to 146 °C. The chromatographic logP in data set [1] is 2.9.

For `Cc1c(Br)nc(Br)n1S(=O)(=O)c1cccnc1Cl` [drawing 19], the Efficacy in % in the data set on Phytophthora infestans is recorded as 94%.

As for `Cc1c(Br)nc(Br)n1S(=O)(=O)c1cccnc1Cl` [Example 2], the melting point fell in the range of 154 to 158 °C. In data set [1], this molecule returned a chromatographic logP of 2.97.

A word on the melting point: it is the temperature of the solid-liquid transition. For orientation: chromatographic logP means lipophilicity estimated from chromatographic retention. Low values mean a more hydrophilic compound, high ones a more lipophilic compound.
